Laboratory results published in US10981932B2, “Macrocyclic indole derivatives” (Bayer Aktiengesellschaft, priority 2016, dated 2021).
Where a name gives a salt, the structure may show the parent alone. Read-outs that look alike come from different tables or passages of the source. Blank lines part the entries; values can stand above or below the molecule they belong to.

Legend:
MCL-1 = MCL-1 (Homo sapiens, UniProt Q07820); assay: Protein-protein interaction assay MCL-1/Noxa BH3 peptide (MCL-1 assay), TR-FRET; type: binding; conditions: MBP-MCL-1 / Noxa BH3-derived peptide, median
MCL-1, sequence (Q07820 whole entry): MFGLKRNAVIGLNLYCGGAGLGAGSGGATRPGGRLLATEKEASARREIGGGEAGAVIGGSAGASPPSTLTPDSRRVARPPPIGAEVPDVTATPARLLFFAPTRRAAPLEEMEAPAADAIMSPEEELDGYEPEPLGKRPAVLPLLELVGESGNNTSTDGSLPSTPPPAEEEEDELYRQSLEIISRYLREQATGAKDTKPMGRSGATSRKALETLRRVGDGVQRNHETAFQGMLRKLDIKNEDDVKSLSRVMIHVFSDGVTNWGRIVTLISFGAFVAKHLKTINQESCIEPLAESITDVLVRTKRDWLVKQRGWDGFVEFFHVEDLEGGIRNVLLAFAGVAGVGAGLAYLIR
Outline: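 TR-FRET, 665/622 nm emission ratio (excitation 330–350 nm), measured MCL-1/Noxa complex formation. 1 nM MBP-MCL-1, 50 mM Tris/HCl pH 7, 0.1% BGG, 2 mM DTT. Incubation 1 h at 22 °C, then overnight at 4 °C. IC50 by 4-parameter regression, normalized to DMSO (0%) and no-MCL-1 (100%) controls.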

SUDHL10 [1] = assay: Induction of caspase-3/7 activity (Caspase-Glo 3/7), SUDHL10; type: cell-based; conditions: caspase-3/7 induction, SUDHL10 cells, 3 h treatment, median
Outline: (§1)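 DLBCL cells treated with compounds for 3 h at 37 °C, then caspase-3/7 activity read by Caspase-Glo 3/7 luminescence. Medium-only background subtracted; EC50 fitted with C0 fixed at 1 and top set to the reference compound's maximal induction.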

MV-4-11 = assay: Anti-proliferative effect (CellTiter-Glo, 72 h), MV-4-11; type: cell-based; conditions: MV-4-11 cells, median, read-out: IC50 antiproliferation assay MV-4-11 [M] (median)
Description: Assessment of the Anti-Proliferative Effect of Compounds in Different Cell Lines
The impact of compounds on the proliferation of different cell lines was assessed using the CellTiter-Glo® Luminescent Cell Viability reagent from Promega (G7573). Of note, SUDHL10 and SUDHL5 (DLBCL), NCI-H929 (Multiple Myeloma), A2780 (ovarian carcinoma) as well as MV-4-11(AML) cells are sensitive to MCL-1 inhibition.
In parallel, cells were plated in a reference (day 0) plate for time zero determination.
Rim wells were excluded. The cells were incubated for 72 h hours in a humidified incubator at 37° C. The day 0 plate was measured by adding 30 μl/well of CTG solution (CellTiter-Glo® Luminescent Cell Viability reagent, Promega G7573) to time zero wells in the reference plate followed by a 10 minutes incubation and luminescence reading at 0.1 ms, using the PHERAstar FS microplate reader (BMG Labtech).
After 72 h incubation, the treated plates were measured in the same way as the day 0 plate mentioned above.

SUDHL10 [2] = assay: Induction of cytotoxicity (CellTiter-Glo, 5 h), SUDHL10
SUDHL5 [3] = assay: Induction of cytotoxicity (CellTiter-Glo, 5 h), SUDHL5
SUDHL5 [4] = assay: Anti-proliferative effect (CellTiter-Glo, 72 h), SUDHL5; type: cell-based; conditions: SUDHL5 cells, antiproliferation, median, read-out: Antiproli SUDHL5 [M] (median)
Outline: (§2)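 A time zero plate, read with CellTiter-Glo shortly after seeding, served as baseline; compound-treated plates were incubated 72 h at 37 °C and then read identically by luminescence.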

SUDHL5 [5] = assay: Induction of caspase-3/7 activity (Caspase-Glo 3/7), SUDHL5; type: cell-based; conditions: caspase-3/7 induction, SUDHL5 cells, 3 h treatment, median
Outline: as §1

A2780 = assay: Anti-proliferative effect (CellTiter-Glo, 72 h), A2780; type: cell-based; conditions: A2780 cells, median, read-out: IC50 antiproliferation assay A2780 [M] (median)
Outline: as §2

[6] = read-out: Cytotox SUDHL10 [M] (median), SUDHL10 cells, cytotoxicity induction, CellTiter-Glo, 5 h incubation, median
[7] = read-out: Cytotox SUDHL5 [M] (median), SUDHL5 cells, cytotoxicity induction, CellTiter-Glo, 5 h incubation, median
[8] = Homo sapiens, SU-DHL-5, 72 h, 72 h incubation
[9] = Homo sapiens, SU-DHL10, 5 h, read-out: Cytotox SUDHL10 [M] (median), SUDHL10 cells, cytotoxicity induction, CellTiter-Glo, 5 h, median
[10] = Homo sapiens, SU-DHL-5, 5 h, read-out: Cytotox SUDHL5 [M] (median), SUDHL5 cells, cytotoxicity induction, CellTiter-Glo, 5 h, median
[11] = Homo sapiens, SU-DHL-5, 72 h, 72 h
[12] = Homo sapiens, SU-DHL10, 5 h, read-out: Cytotox SUDHL10 [M] (median), SUDHL10 cells, cytotoxicity induction, CellTiter-Glo, 5 h incubation, median

- IC50 (MCL-1): 0.983 µM
- EC50 (SUDHL10 [1]; Homo sapiens, SU-DHL10, 3 h): 23.8 µM
- IC50 (MV-4-11; Homo sapiens, MV4-11, 72 h): 4.89e-06 M
- IC50 (SUDHL5 [4]; [8]): 2.76e-06 M
- EC50 (SUDHL5 [5]): > 33 µM
- IC50 (A2780): 7.15e-06 M
Structure (SMILES): CCc1nn(C)c2c1-c1c(C)ccc3c(C(C)CCOc4cccc5ccccc45)c(C(=O)O)n(c13)CCCCOC2 (single isomer, unassigned) [Example 272, 3-ethyl-1,4-dimethyl-7-[4-(naphthalen-1-yloxy)butan-2-yl]-1,10,11,12,13,15-hexahydropyrazolo[4′,3′:9,10][1,6]oxazacycloundecino[8,7,6-hi]indole-8-carboxylic Acid]
- IC50 (SUDHL10 [2]; [6]): 2.5e-05 M
- IC50 (SUDHL5 [3]; [7]): > 3.3e-05 M

- IC50 (MCL-1): 0.0633 µM
- EC50 (SUDHL10 [1]; Homo sapiens, SU-DHL10, 3 h): > 33 µM
- IC50 (MV-4-11; Homo sapiens, MV4-11, 72 h): 2.42e-05 M
- IC50 (SUDHL5 [4]; [11]): 9.54e-06 M
- EC50 (SUDHL5 [5]; Homo sapiens, SU-DHL-5, 3 h): 24.2 µM
- IC50 (A2780; Homo sapiens, A2780, 72 h): 1.69e-05 M
Structure (SMILES): Cc1nn(C)c2c1-c1cccc3c(CCCOc4cccc5cc(C(F)(F)F)ccc45)c(C(=O)O)n(c13)CCCCOC2 [Example 364, (rac)-10,12-dimethyl-1-(3-((6-(trifluoromethyl)naphthalen-1-yl)oxy)propyl) -4,5,67,9,10-hexahydropyrazolo[4′,3′:9,10][1,6]oxaazacycloundecino[8,7,6-hi]indole-2-carboxylic Acid]
- IC50 (SUDHL10 [2]; [9]): > 3.3e-05 M
- IC50 (SUDHL10 [2]; read-out: Cytotox SUDHL10 [M] (median), SUDHL10 cells, cytotoxicity induction, CellTiter-Glo, 5 h, median): 2.04e-05 M
- IC50 (SUDHL5 [3]; [10]): 1.92e-05 M

- IC50 (MCL-1): 0.0454 µM
- EC50 (SUDHL10 [1]; Homo sapiens, SU-DHL10, 3 h): > 33 µM
- IC50 (MV-4-11): 1.05e-05 M
- IC50 (SUDHL5 [4]; [11]): 1.19e-05 M
- EC50 (SUDHL5 [5]; Homo sapiens, SU-DHL-5, 3 h): > 33 µM
- IC50 (A2780; Homo sapiens, A2780, 72 h): > 3.3e-05 M
Structure (SMILES): COc1ccc2c(CCCOc3cccc4ccccc34)c(C(=O)O)n3c2c1-c1c(C)nn(C)c1COCCCC3 (single isomer, unassigned; enantiomer 1) [Example 352, 4-methoxy-1,3-dimethyl-7-[3-(naphthalen-1-yloxy)propyl]-1,10,11,12,13,15-hexahydropyrazolo[4′,3′:9,10][1,6]oxazacycloundecino[8,7,6-hi]indole-8-carboxylic Acid Ammonium Salt (Enantiomer 1)]
- IC50 (SUDHL10 [2]; [9]): > 3.3e-05 M
- IC50 (SUDHL5 [3]; [10]): > 3.3e-05 M

- IC50 (MCL-1): 0.0331 µM
- EC50 (SUDHL10 [1]; Homo sapiens, SU-DHL10, 3 h): 21.3 µM
- IC50 (MV-4-11; Homo sapiens, MV4-11, 72 h): 1.31e-05 M
- IC50 (SUDHL5 [4]; [11]): 5.42e-06 M
- EC50 (SUDHL5 [5]; Homo sapiens, SU-DHL-5, 3 h): 27.4 µM
- IC50 (A2780; Homo sapiens, A2780, 72 h): 6.58e-06 M
Structure (SMILES): Cc1c2c(nn1C)COCCCCn1c(C(=O)O)c(CCCOc3cccc4cc(C(F)(F)F)ccc34)c3cccc-2c31 (racemic) [Example 310]
- IC50 (SUDHL10 [2]; [9]): 1.75e-05 M
- IC50 (SUDHL5 [3]; [10]): 2.36e-05 M

Further lines, the molecule ahead of its results:

Structure (SMILES): CN1CCCCn2c(C(=O)O)c(CCCOc3cccc4ccccc34)c3cccc(c32)-c2c(CC(F)(F)F)nn(C)c2C1 (racemic) [Example 222, (rac)-1,14-dimethyl-7-[3-(naphthalen-1-yloxy)propyl]-3-(2,2,2-trifluoroethyl)-10,11,12,13,14,15-hexahydro-1H-pyrazolo[3′,4′:8,9][1,6]diazacycloundecino[10,11,1-hi]indole-8-carboxylic Acid]
- IC50 (MCL-1): 0.00597 µM
- EC50 (SUDHL10 [1]; Homo sapiens, SU-DHL10, 3 h): 18.2 µM
- IC50 (MV-4-11; Homo sapiens, MV4-11, 72 h): 7.87e-06 M
- IC50 (SUDHL10 [2]; [12]): 2.01e-05 M
- IC50 (SUDHL5 [3]; Homo sapiens, SU-DHL-5, 5 h, read-out: Cytotox SUDHL5 [M] (median), SUDHL5 cells, cytotoxicity induction, CellTiter-Glo, 5 h incubation, median): 1.15e-05 M
- IC50 (SUDHL5 [4]; [8]): 9.85e-06 M
- EC50 (SUDHL5 [5]; Homo sapiens, SU-DHL-5, 3 h): 14.4 µM
- IC50 (A2780; Homo sapiens, A2780, 72 h): 2.46e-05 M

Structure (SMILES): Cn1nc2c(c1OC(F)F)-c1cccc3c(CCCOc4cccc5ccccc45)c(C(=O)O)n(c13)CCCCOC2 (single isomer, unassigned) [Example 235, (−)-3-(difluoromethoxy)-2-methyl-7-[3-(naphthalen-1-yloxy)propyl]-2,10,11,12,13,15-hexahydropyrazolo[4′,3′:9,10][1,6]oxazacycloundecino[8,7,6-hi]indole-8-carboxylic Acid]
- IC50 (MCL-1): 0.0779 µM
- EC50 (SUDHL10 [1]; Homo sapiens, SU-DHL10, 3 h): > 33 µM
- IC50 (MV-4-11; Homo sapiens, MV4-11, 72 h): 2.07e-05 M
- IC50 (SUDHL10 [2]; [12]): > 3.3e-05 M
- IC50 (SUDHL5 [3]; [7]): > 3.3e-05 M
- IC50 (SUDHL5 [4]; [8]): 1.22e-05 M
- EC50 (SUDHL5 [5]): > 33 µM
- IC50 (A2780; Homo sapiens, A2780, 72 h): 1.8e-05 M

Structure (SMILES): Cc1ccc2c(CCCOc3cccc4ccccc34)c(C(=O)O)n3c2c1-c1c(C)nn(C)c1COCCC3 (single isomer, unassigned; enantiomer 2) [Example 026, (−)-9,11,12-trimethyl-1-[3-(naphthalen-1-yloxy)propyl]-5,6,8,9-tetrahydro-4H-pyrazolo[4′,3′:8,9][1,5]oxazecino[7,6,5-hi]indole-2-carboxylic acid-N-ethylethanamine Salt (Enantiomer 2)]
- IC50 (MCL-1): 0.0234 µM
- EC50 (SUDHL10 [1]): 20.2 µM
- IC50 (MV-4-11; Homo sapiens, MV4-11, 72 h): 1.14e-05 M
- IC50 (SUDHL10 [2]; [6]): 2.58e-05 M
- IC50 (SUDHL5 [3]; [7]): 2.41e-05 M
- IC50 (SUDHL5 [4]; 72 h incubation): 8.59e-06 M
- EC50 (SUDHL5 [5]): 23.8 µM
- IC50 (A2780): 1.97e-05 M

Structure (SMILES): CCc1nn(C)c2c1-c1c(C)ccc3c(C(C)CCOc4cccc5cc(F)ccc45)c(C(=O)O)n(c13)CCCCOC2 (single isomer, unassigned) [Example 265, 3-ethyl-7-{4-[(6-fluoronaphthalen-1-yl)oxy]butan-2-yl}-1,4-dimethyl-1,10,11,12,13,15-hexahydropyrazolo[4′,3′:9,10][1,6]oxazacycloundecino[8,7,6-hi]indole-8-carboxylic Acid]
- IC50 (MCL-1): 0.00585 µM
- EC50 (SUDHL10 [1]): 10.1 µM
- IC50 (MV-4-11; Homo sapiens, MV4-11, 72 h): 2.75e-06 M
- IC50 (SUDHL10 [2]; [6]): 7.35e-06 M
- IC50 (SUDHL5 [3]; [7]): 2.09e-06 M
- IC50 (SUDHL5 [4]; 72 h incubation): 2.58e-06 M
- EC50 (SUDHL5 [5]): 2.71 µM

Structure (SMILES): CN1CCCn2c(C(=O)O)c(CCCOc3cccc4ccccc34)c3cccc(c32)-c2c(nn(C)c2COc2ccc(N3CCN(S(=O)(=O)N(C)C)CC3)cc2)C1 (single isomer, unassigned; enantiomer 2) [Example 1-113, 11-({4-[4-(Dimethylsulfamoyl)piperazin-1-yl]phenoxy}methyl)-7,10-dimethyl-1-[3-(1-naphthyloxy)propyl]-4,5,6,7,8,10-hexahydropyrazolo[3′,4′:7,8][1,5]diazecino[9,10,1-hi]indole-2-carboxylic Acid (Enantiomer 2)]
- IC50 (MCL-1): 0.0277 µM
- EC50 (SUDHL10 [1]): 9.08 µM
- IC50 (MV-4-11): 1.2e-05 M
- IC50 (SUDHL10 [2]; [6]): 2.06e-05 M
- IC50 (SUDHL5 [3]; [7]): 1.31e-05 M
- IC50 (SUDHL5 [4]; 72 h incubation): 1.05e-05 M
- EC50 (SUDHL5 [5]): 10.5 µM

Structure (SMILES): CN1CCCn2c(C(=O)O)c(CCCOc3cccc4ccccc34)c3cccc(c32)-c2c(nn(C)c2COc2ccc(N3CCN(S(=O)(=O)N(C)C)CC3)cc2)C1 (single isomer, unassigned; enantiomer 1) [Example 1-112, 11-({4-[4-(Dimethylsulfamoyl)piperazin-1-yl)phenoxy]methyl}-7,10-dimethyl-1-[3-(1-naphthyloxy)propyl]-4,5,6,7,8,10-hexahydropyrazolo[3′,4′:7,8][1,5]diazecino[9,10,1-hi]indole-2-carboxylic Acid (Enantiomer 1)]
- IC50 (MCL-1): 0.012 µM
- EC50 (SUDHL10 [1]): 3.34 µM
- IC50 (MV-4-11): 2.69e-06 M
- IC50 (SUDHL10 [2]; [6]): 5.46e-06 M
- IC50 (SUDHL5 [3]; [7]): 3.3e-06 M
- IC50 (SUDHL5 [4]; 72 h incubation): 2.72e-06 M
- EC50 (SUDHL5 [5]): 2.32 µM
